Source: US10202330B2, “Lysine specific demethylase-1 inhibitors and their use” (ORYZON GENOMICS S.A., priority 2010, dated 2019)
Structures can show the parent of a compound that is named as a salt. Where two headings read alike, the source gives them in different places.

Assays:
[1] = molecular target: Human recombinant monoamine oxidase MAO-A (Homo sapiens (Human), UniProt P21397); assay: Monoamine oxidase assay, kynuramine to 4-hydroxyquinoline fluorescence; type: biochemical; conditions: Ki (IC50) at Vmax/2; two ranges listed = near the boundary
From the text: (§1) In order to monitor MAO enzymatic activities and/or their inhibition rate by inhibitor(s) of interest, a fluorescent-based (inhibitor)-screening assay was set up. 3-(2-Aminophenyl)-3-oxopropanamine (kynuramine dihydrobromide, Sigma Aldrich), a non fluorescent compound was chosen as a substrate. Kynuramine is a non-specific substrate for both MAOs activities. While undergoing oxidative deamination by MAO activities, kynuramine is converted into 4-hydroxyquinoline (4-HQ), a resulting fluorescent product.
(§2) The monoamine oxidase activity was estimated by measuring the conversion of kynuramine into 4-hydroxyquinoline. Assays were conducted in 96-well black plates with clear bottom (Corning) in a final volume of 100 μL. The assay buffer was 100 mM HEPES, pH 7.5. Each experiment was performed in triplicate within the same experiment.
(§3) The oxidative deamination of the substrate was stopped by adding 50 μL (v/v) of NaOH 2N. […] Arbitrary units were used to measure levels of fluorescence produced in the absence and/or in the presence of inhibitor.
(§4) The Ki (IC50) of each inhibitor was determined at Vmax/2.

[2] = molecular target: Human recombinant LSD1 protein (Homo sapiens (Human), UniProt O60341); assay: LSD1 inhibition, Amplex Red peroxide/peroxidase-coupled assay with di-methylated H3-K4 peptide; type: biochemical
Method: The demethylase activity was estimated, under aerobic conditions, by measuring the release of H2O2 produced during the catalytic process, using the Amplex® Red peroxide/peroxidase-coupled assay kit (Invitrogen).
Within the experiment, each concentration of inhibitor was tested in triplicate. […] The enzymatic reactions were set up in a 50 mM sodium phosphate, pH 7.4 buffer. At the end of the incubation, Amplex® Red reagent and horseradish peroxidase (HPR) solution were added to the reaction according to the recommendations provided by the supplier (Invitrogen), and left to incubate for 30 extra minutes at room temperature in the dark. A 1 μM H2O2 solution was used as a control of the kit efficiency. The conversion of the Amplex® Red reagent to resorufin due to the presence of H2O2 in the assay, was monitored by fluorescence (excitation at 540 nm, emission at 590 nm) using a microplate reader (Infinite 200, Tecan). Arbitrary units were used to measure level of H2O2 produced in the absence and/or in the presence of inhibitor.
The Ki (IC50) of each inhibitor was estimated at half of the maximum activity.

[3] = molecular target: Human recombinant monoamine oxidase MAO-B (Homo sapiens (Human), UniProt P27338); assay: Monoamine oxidase assay, kynuramine to 4-hydroxyquinoline fluorescence; type: biochemical; conditions: Ki (IC50) at Vmax/2; two ranges listed = near the boundary
From the text: as §1, §2, §3, §4

[4] = system: human colon cancer cell line HCT116; assay: Cancer cell line study, alamarBlue viability assay; type: cell-based; conditions: HCT-116, read-out: EC50 (dose required to inhibit cell growth by 50%), HCT116, 72 hours
Method: The HCT116 cell line was maintained in DMEM GlutaMAX (Invitrogen) supplemented with 10% fetal calf serum.
Cells were grown in a humidified incubator at 37° C. in 5% CO2.
Cells were plated in 96-well plates at a density of 6000 cells/well in 100 μl medium 24 h before addition of drugs. […] To do so, a drugs-dilution plate at twice the screening concentrations was prepared. 72 hours later, alamarBlue (Biosource, Invitrogen) viability assay was performed following manufacturer's protocol. In brief, alamarBlue diluted in media was added to cells to have a 5% solution. Cells were incubated at 37° C., 3 hours and at room temperature, 30 min. Cells with no drug and, cells with no drug and lysed with triton X-100 were used as controls. Fluorescence was monitored at 530 nm excitation and 590 nm emission wavelengths. Results were quantified using Infinite F200 Microplate Reader (Tecan Group, Ltd.).

[5] = Ki (IC50) at half of the maximum activity, two ranges listed = near the boundary, read-out: LSD1 (Ki)

Row | SMILES | Ki [1] [nM] | Ki [2, 5] [nM] | Ki [3] [nM] | MAO-B (Ki) [3] | LSD1 (Ki) ([2]; Ki (IC50) at half of the maximum activity, two ranges listed = near the boundary) | EC50 [4] [nM] | Ki [2] [nM]
1 | COc1ccc2c(c1)C(N[C@H]1CC1c1ccc(OCc3ccccc3)cc1)CC2.Cl (stereo in doubt) [Example 1, N-((trans)-2-(4-(benzyloxy)phenyl)cyclopropyl)-6-methoxy-2,3-dihydro-1H-inden-1-amine hydrochloride] | 1000 to 40000 | – | – | II, III | – | – | –
2 | Brc1cccc(COc2ccc([C@H]3C[C@@H]3NCCC3CCCCC3)cc2)c1 (relative stereo) [Example 15, (Trans)-2-(4-(3-bromobenzyloxyl)phenyl)-N-(2-cyclohexylethyl)cyclopropanamine hydrochloride] | 1000 to 40000 | – | 100 to 1000 | – | – | ~13300 | 100 to 1000
3 | c1ccc([C@H]2C[C@@H]2NCCCC2CCCCC2)cc1 (relative stereo) [Example 13, (Trans)-N-(3-cyclohexylpropyl)-2-phenylcyclopropanamine hydrochloride] | 1000 to 40000 | 100 to 1000 | 1000 to 40000 | – | – | – | –
4 | COc1ccc2c(c1OC)CCC2N[C@H]1CC1c1ccc(OCc2ccccc2)cc1.Cl (stereo in doubt) [Example 3, N-((trans)-2-(4-(benzyloxy)phenyl)cyclopropyl)-4,5-dimethoxy-2,3-dihydro-1H-inden-1-amine hydrochloride] | 1000 to 40000 | – | 1000 to 40000 | – | II, III | ~37000 | –
5 | c1ccc([C@H]2C[C@@H]2NCCC2CCCCCC2)cc1 (relative stereo) [Example 14, (Trans)-N-(2-cycloheptylethyl)-2-phenylcyclopropanamine hydrochloride] | 1000 to 40000 | 100 to 1000 | 1000 to 40000 | – | – | – | –
6 | c1ccc(C2C[C@@H]2NC2CCc3ccccc32)cc1 (stereo in doubt) [Example 4, N-((trans)-2-phenylcyclopropyl)-2,3-dihydro-1H-inden-1-amine hydrochloride] | 1000 to 40000 | – | – | – | – | – | –

Now from value to molecule, other results behind:

Row | Ki [1] [nM] | Ki [2, 5] [nM] | Ki [3] [nM] | MAO-B (Ki) [3] | LSD1 (Ki) ([2]; Ki (IC50) at half of the maximum activity, two ranges listed = near the boundary) | SMILES | EC50 [4] [nM] | Ki [2] [nM]
7 | 1000 to 40000 | 100 to 1000 | 1000 to 40000 | – | – | COc1ccc2c(c1)C(N[C@H]1CC1c1ccccc1)CCC2 (stereo in doubt) [Example 8, 7-methoxy-N-((trans)-2-phenylcyclopropyl)-1,2,3,4-tetrahydronaphthalen-1-amine] | – | –
8 | 1000 to 40000 | 100 to 1000 | 1000 to 40000 | – | – | COc1ccc2c(c1)C(N[C@H]1CC1c1ccc(OCc3cccc(Br)c3)cc1)CC2 (stereo in doubt) [Example 16, N-((trans)-2-(4-(3-bromobenzyloxyl)phenyl)cyclopropyl)-6-methoxy-2,3-dihydro-1H-inden-1-amine hydrochloride] | – | –
9 | 1000 to 40000 | 100 to 1000 | 1000 to 40000 | – | – | Clc1ccc2c(c1)C(N[C@H]1CC1c1ccccc1)CC2 (stereo in doubt) [Example 6, 6-chloro-N-((trans)-2-phenylcyclopropyl)-2,3-dihydro-1H-inden-1-amine hydrochloride] | – | –
10 | 1000 to 40000 | 100 to 1000 | 1000 to 40000 | – | – | COc1ccc2c(c1)C(N[C@@H]1C[C@H]1c1ccc(OCc3ccccc3)cc1)CCC2 (relative stereo) [Example 20, N-((trans)-2-(4-(benzyloxy)phenyl)cyclopropyl)-7-methoxy-1,2,3,4-tetrahydronaphthalen-1-amine] | – | –
11 | 1000 to 40000 | – | – | – | – | COc1ccc2c(c1)C(N[C@H]1CC1c1ccccc1)CC2 (stereo in doubt) [Example 5, 6-methoxy-N-((trans)-2-phenylcyclopropyl)-2,3-dihydro-1H-inden-1-amine] | – | –
12 | 1000 to 40000 | – | – | – | – | COc1cccc(-c2ccc(C3C[C@@H]3NC3CCc4ccc(OC)cc43)cc2)c1 (stereo in doubt) [Example 11, 6-methoxy-N-((trans)-2-(3′-methoxybiphenyl-4-yl)cyclopropyl)-2,3-dihydro-1H-inden-1-amine hydrochloride] | – | –
